# Where two headings read alike, the source gives them in different places.
# How the values were obtained:
# [1] = test system: human cervical carcinoma KB-3-1; experiment: MTT cytotoxicity assay, 48 h; type: cell-based; settings: for IC50: MTT, 48 h, read-out: IC50, µM Cervix KB-3-1; for Selectivity index: KB-3-1: IC50 in hFF3 / IC50 in KB-3-1
# Experimental: (§1) On the first step of the biological evaluation of novel GA derivatives 3a-h, 4a-h, and 5a-h, we analyzed their cytotoxicity in a panel of cultured mammalian cells, including human cervical carcinoma HeLa and KB-3-1, human duodenal carcinoma HuTu-80, human lung adenocarcinoma A549, murine melanoma B16 cell lines, and nontransformed human fibroblasts hFF3. The cells were treated with derivatives for 48 h and cell viability was evaluated by 3-(4, 5-dimethylthiazol-2-yl)-2, 5-diphenyltetrazolium bromide (MTT) assay. Since the studied compounds contain two types of functional groups at position 3-acetoxy- or the hydroxyl-group, 3-acetoxy-GA 1 and GA-Me were used as references. Additionally, hierarchical clustering of cytotoxic data was carried out in order to reveal groups of compounds with similar cytotoxic profiles (Figure 2A).
# (§2) Human cervical carcinoma HeLa and KB-3-1 cells, human duodenal carcinoma HuTu-80 cells, and human lung adenocarcinoma A549 cells were obtained from the Russian Culture Collection (Institute of Cytology, RAS, St. Petersburg, Russia). Melanoma B16-F10 (hereafter, melanoma B16) cells were obtained from the Cell Culture Bank of the Blokhin National Medical Oncology Research Center (Moscow, Russia). Nonmalignant fibroblasts hFF3 and RAW264.7 macrophages were kindly provided by Dr. Olga A. Koval (Institute of Chemical Biology and Fundamental Medicine, SB RAS, Novosibirsk, Russia) and Prof. Dmitry Kuprash (Engelhardt Institute of Molecular Biology, RAS, Moscow, Russia), respectively. The cells were cultured in DMEM (Sigma-Aldrich Inc., St. Louis, MO, USA) supplemented with 10% (v/v) heat-inactivated fetal bovine serum (FBS) (BioloT, St. Petersburg, Russia) and antibiotic–antimycotic solution (100 U/mL penicillin, 100 µg/mL streptomycin, 0.25 µg/mL amphotericin). […] The cells were incubated at 37 °C in a humidified 5% CO2-containing air atmosphere (hereafter referred to as standard conditions). GA derivatives were dissolved in DMSO (stock solutions: 10 mM) and stored at −20 °C prior to use.
# (§3) Cells were seeded in tetra- or pentaplicates in 96-well plates at a density of 10^4 (tumor cells and […] fibroblasts) or 10^5 (RAW264.7 cells) cells per well. Cells were incubated under standard conditions for 24 h, followed by their treatment with the investigated derivatives (0.5–50 µM) or corresponding concentrations of DMSO (control) for a further 48 h (tumor cells and fibroblasts) or 24 h (RAW264.7 cells). At the end of incubation period, 10 µL of MTT solution was added to the cells (final concentration: 0.5 mg/mL) and plates were incubated for an additional 2 h under standard conditions. Then, the MTT-containing medium was aspirated and formazan crystals formed in living cells were solubilized with 100 µL of DMSO. The absorbance of each well was read at test and reference wavelengths of 570 and 620 nm, respectively, on a Multiscan RC plate reader (Thermo LabSystems, Helsinki, Finland). The IC50 values (the concentration of compounds leading to a decrease of A570 to 50% of A570^control) were calculated by extrapolation of the dose–response curves. […] A heatmap of SI values was constructed by Microsoft Excel 2010.
# [2] = test system: human lung adenocarcinoma A549; experiment: MTT cytotoxicity assay, 48 h; type: cell-based; settings: for IC50: MTT, 48 h; for Selectivity index: A549: IC50 in hFF3 / IC50 in A549
# Experimental: as §1, §2, §3
# [3] = test system: human cervical carcinoma HeLa; experiment: MTT cytotoxicity assay, 48 h; type: cell-based; settings: for IC50: MTT, 48 h, read-out: IC50, µM Cervix HeLa; for Selectivity index: HeLa: IC50 in hFF3 / IC50 in HeLa
# Experimental: as §1, §2, §3
# [4] = test system: nontransformed human fibroblasts hFF3; experiment: MTT cytotoxicity assay, 48 h; type: cell-based
# Experimental: as §1, §2, §3
# murine melanoma B16 = experiment: MTT cytotoxicity assay, 48 h; type: cell-based; settings: for Selectivity index: B16: IC50 in hFF3 / IC50 in B16; for IC50: MTT, 48 h
# Experimental: as §1, §2, §3
# [5] = test system: human duodenal carcinoma HuTu-80; experiment: MTT cytotoxicity assay, 48 h; type: cell-based; settings: for IC50: MTT, 48 h, read-out: IC50, µM Duodenum HuTu-80; for Selectivity index: HuTu-80: IC50 in hFF3 / IC50 in HuTu-80
# Experimental: as §1, §2, §3
# [6] = test system: HeLa, KB-3-1, HuTu-80, A549, B16 and hFF3 cells; experiment: MTT cytotoxicity, summary over the panel of cell lines; type: cell-based
# Experimental: as §1, §3
# [7] = Homo sapiens, HFF-3, read-out: IC50, µM Fibroblast hFF3
# [8] = median over all tested cell lines, read-out: median IC50
SMILES,melting point,"IC50 ([1]; Homo sapiens, KB 3-1) [µM]",Selectivity index: KB-3-1 [1],"IC50 ([2]; Homo sapiens, A549) [µM]",Selectivity index: A549 [2],"IC50 ([3]; Homo sapiens, HeLa) [µM]",Selectivity index: HeLa [3],"IC50 [4, 7] [µM]",Selectivity index: B16 (murine melanoma B16),IC50 (murine melanoma B16; Mus musculus) [µM],"IC50 ([5]; Homo sapiens, HuTu80) [µM]",Selectivity index: HuTu-80 [5],"IC50 [6, 8] [µM]",further results
CC(=O)O[C@H]1CC[C@@]2(C)C(CC[C@]3(C)C2C(=O)C=C2[C@@H]4C[C@@](C)(C(=O)O/N=C(\C)N)CC[C@]4(C)CC[C@]23C)C1(C)C (some centres unmarked) [Compound 3a],112.8 to 117.3 °C,5.9 ± 0.2,0.3,2.6 ± 0.1,0.7,2.6 ± 0.1,0.7,1.7 ± 0.1,0.3,6.8 ± 0.2,2.3 ± 0.1,0.7,2.6,–
"CC(=O)O[C@H]1CC[C@@]2(C)C(CC[C@]3(C)C2C(=O)C=C2[C@@H]4C[C@@](C)(c5nc(-c6ccccn6)no5)CC[C@]4(C)CC[C@]23C)C1(C)C (stereo partly drawn) [Compound 4f, 30-nor-3β-acetoxy-11-oxo-20-(3′-(pyridin-2′′-yl)-1′,2′,4′-oxadiazol-5′-yl)-18βH-olean-12-en]",293.5 to 297.9 °C,10.3 ± 1.2,1.1,40.3 ± 4.1,0.3,17.9 ± 7.7,0.6,11.5 ± 1,1.9,6 ± 2.3,11.4 ± 1,1.0,11.5,–
"CC(=O)O[C@H]1CC[C@@]2(C)C(CC[C@]3(C)C2C(=O)C=C2[C@@H]4C[C@@](C)(c5nc(-c6cccnc6)no5)CC[C@]4(C)CC[C@]23C)C1(C)C (stereo partly drawn) [Compound 4g, 30-nor-3β-acetoxy-11-oxo-20-(3′-(pyridin-3′′-yl)-1′,2′,4′-oxadiazol-5′-yl)-18βH-olean-12-en]",253.2 °C (dec.),9.5 ± 0.5,> 5.3,49.7 ± 4.5,>1.0,> 50,–,> 50,–,> 50,5.8 ± 0.5,> 8.6,49.9,–
"CC(=O)O[C@H]1CC[C@@]2(C)C(CC[C@]3(C)C2C(=O)C=C2[C@@H]4C[C@@](C)(c5nc(-c6ccncc6)no5)CC[C@]4(C)CC[C@]23C)C1(C)C (stereo partly drawn) [Compound 4h, 30-nor-3β-acetoxy-11-oxo-20-(3′-(pyridin-4″-yl)-1′,2′,4′-oxadiazol-5′-yl)-18βH-olean-12-en]",265.3 to 267.3 °C,> 50,–,> 50,–,> 50,–,> 50,–,> 50,49.7 ± 2.4,>1.0,–,cytotoxicity in all tested cell lines [6]: nontoxic; IC50 ([6]; read-out: IC50 values with respect to all tested cell lines): ≥ 50 µM
"CC(C)c1noc([C@@]2(C)CC[C@]3(C)CC[C@]4(C)C(=CC(=O)C5[C@@]6(C)CC[C@H](O)C(C)(C)C6CC[C@]54C)[C@@H]3C2)n1 (stereo partly drawn) [Compound 5c, 30-nor-3β-hydroxy-11-oxo-20-(3′-isopropyl-1′,2′,4′-oxadiazol-5′-yl)-18βH-olean-12-en]",216.4 to 219.7 °C,5.9 ± 0.1,0.9,4.5 ± 1.1,1.2,2.6 ± 0.1,2.2,5.6 ± 1,0.8,6.6 ± 0.1,9.5 ± 0.5,0.6,5.8,–
"CC(C)(C)c1noc([C@@]2(C)CC[C@]3(C)CC[C@]4(C)C(=CC(=O)C5[C@@]6(C)CC[C@H](O)C(C)(C)C6CC[C@]54C)[C@@H]3C2)n1 (stereo partly drawn) [Compound 5d, 30-nor-3β-hydroxy-11-oxo-20-(3′-tert-butyl-1′,2′,4′-oxadiazol-5′-yl)-18βH-olean-12-en]",227.8 °C (dec.),22.3 ± 3.7,1.0,23.5 ± 6.3,0.9,3.7 ± 0.9,5.8,21.6 ± 3.4,1.9,11.3 ± 1.9,8.8 ± 1.1,2.5,16.5,–
"CC1(C)C2CC[C@]3(C)C(C(=O)C=C4[C@@H]5C[C@@](C)(c6nc(-c7ccccc7)no6)CC[C@]5(C)CC[C@]43C)[C@@]2(C)CC[C@@H]1O (stereo partly drawn) [Compound 5e, 30-nor-3β-hydroxy-11-oxo-20-(3′-phenyl-1′,2′,4′-oxadiazol-5′-yl)-18βH-olean-12-en]",231.7 to 232.1 °C,> 50,–,> 50,–,20.3 ± 2.2,> 2.5,> 50,–,> 50,> 50,–,–,cytotoxicity in all tested cell lines [6]: nontoxic
"COC(=O)[C@@]1(C)CC[C@]2(C)CC[C@]3(C)C(=CC(=O)[C@@H]4[C@@]5(C)CC[C@H](O)C(C)(C)[C@@H]5CC[C@]43C)[C@@H]2C1 [GA-Me, reference compound]",–,–,10.9,–,8.2,–,6.1,–,10.9,–,–,10.9,1.1,"IC50 [1]: 0.9 ± 0.1 µM; IC50 [2]: 1.2 ± 0.1 µM; IC50 [3]: 0.9 ± 0.1 µM; IC50 ([4]; read-out: IC50, µM Fibroblast hFF3): 9.8 ± 1 µM; IC50 (murine melanoma B16): 0.9 ± 0.1 µM; IC50 [5]: 1.6 ± 0.5 µM; median SI ([6]; in all tumor cells): 10.9"
